pIC50: −log10 of the molar value. Some results are limits rather than exact numbers.

The source of these data is patent US8962596B2 (Array BioPharma Inc., priority 2010, dated 2015).

Common to all, as to format: biochemical
The target in one experiment is T1, Human Tyk2 kinase domain (Homo sapiens, UniProt P29597).
T1 construct: comprising amino acids 886 to 1187 with 10 additional histidine residues; 10xHis (histidine tag) (C, cleaved yes); made in house
T1 sequence (P29597 886-1187): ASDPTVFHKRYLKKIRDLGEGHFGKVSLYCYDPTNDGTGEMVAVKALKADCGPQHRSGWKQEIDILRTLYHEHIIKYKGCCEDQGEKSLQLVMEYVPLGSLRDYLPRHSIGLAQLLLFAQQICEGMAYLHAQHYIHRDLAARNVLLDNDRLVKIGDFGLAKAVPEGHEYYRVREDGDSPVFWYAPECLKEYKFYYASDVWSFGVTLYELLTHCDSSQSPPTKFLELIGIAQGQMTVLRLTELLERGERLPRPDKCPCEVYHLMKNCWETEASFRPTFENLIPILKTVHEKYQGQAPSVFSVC
In words: Tyk2 Inhibition Assay (Omnia kinase fluorescence peptide substrate assay). The settings on record: averaged IC50 ranges; assay of Example A; 10 μM (Km app) or 1 mM ATP, 2 nM Tyk2. The gist of the method:
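2 nM His-tag-cleaved kinase domain (aa 886–1187) with 8 μM Omnia Y12 peptide, 10 μM (Km app) or 1 mM ATP, pH 7.4 HEPES/10 mM MgCl2, 2% DMSO. Fluorescence (ex 360/em 485 nm) every 50 s for 45 min; IC50 from 4-parameter fit of POC, top dose 10 μM.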

The next experiment concerns the target T2, JAK1 (Homo sapiens, UniProt P23458).
T2 construct: purchased Invitrogen Corporation, Carlsbad, Calif; PV4775
In words: JAK1 Inhibition Assay (Omnia kinase fluorescence peptide substrate assay). To be noted: averaged IC50 ranges; assay of Example B; 40 μM (Km app) or 1 mM ATP, 15 nM JAK1.

The next experiment has as its target T3, JAK2 (Homo sapiens, UniProt O60674).
T3 construct: purchased Invitrogen Corporation, Carlsbad, Calif; PV4288
In words: JAK2 Inhibition Assay (Omnia kinase fluorescence peptide substrate assay). To be noted: averaged IC50 ranges; assay of Example C; 25 μM (Km app) or 1 mM ATP, 5 nM JAK2. The gist of the method:
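5 nM JAK2 phosphorylated 10 μM Omnia Y7 peptide with ATP at 25 μM (Km app) or 1 mM, in 25 mM HEPES pH 7.4, 10 mM MgCl2, 0.01% Triton X-100, 1 mM DTT, 2% DMSO. Fluorescence (360/485 nm) was read every 50 s for 45 min. 10-point 3-fold series from 10 μM; POC versus uninhibited and background controls, 4-parameter logistic IC50.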

For another experiment, the target named is T4, JAK3 (Homo sapiens, UniProt P52333).
T4 construct: purchased Invitrogen Corporation, Carlsbad, Calif; PV4080
T4 sequence (P52333 1-1124): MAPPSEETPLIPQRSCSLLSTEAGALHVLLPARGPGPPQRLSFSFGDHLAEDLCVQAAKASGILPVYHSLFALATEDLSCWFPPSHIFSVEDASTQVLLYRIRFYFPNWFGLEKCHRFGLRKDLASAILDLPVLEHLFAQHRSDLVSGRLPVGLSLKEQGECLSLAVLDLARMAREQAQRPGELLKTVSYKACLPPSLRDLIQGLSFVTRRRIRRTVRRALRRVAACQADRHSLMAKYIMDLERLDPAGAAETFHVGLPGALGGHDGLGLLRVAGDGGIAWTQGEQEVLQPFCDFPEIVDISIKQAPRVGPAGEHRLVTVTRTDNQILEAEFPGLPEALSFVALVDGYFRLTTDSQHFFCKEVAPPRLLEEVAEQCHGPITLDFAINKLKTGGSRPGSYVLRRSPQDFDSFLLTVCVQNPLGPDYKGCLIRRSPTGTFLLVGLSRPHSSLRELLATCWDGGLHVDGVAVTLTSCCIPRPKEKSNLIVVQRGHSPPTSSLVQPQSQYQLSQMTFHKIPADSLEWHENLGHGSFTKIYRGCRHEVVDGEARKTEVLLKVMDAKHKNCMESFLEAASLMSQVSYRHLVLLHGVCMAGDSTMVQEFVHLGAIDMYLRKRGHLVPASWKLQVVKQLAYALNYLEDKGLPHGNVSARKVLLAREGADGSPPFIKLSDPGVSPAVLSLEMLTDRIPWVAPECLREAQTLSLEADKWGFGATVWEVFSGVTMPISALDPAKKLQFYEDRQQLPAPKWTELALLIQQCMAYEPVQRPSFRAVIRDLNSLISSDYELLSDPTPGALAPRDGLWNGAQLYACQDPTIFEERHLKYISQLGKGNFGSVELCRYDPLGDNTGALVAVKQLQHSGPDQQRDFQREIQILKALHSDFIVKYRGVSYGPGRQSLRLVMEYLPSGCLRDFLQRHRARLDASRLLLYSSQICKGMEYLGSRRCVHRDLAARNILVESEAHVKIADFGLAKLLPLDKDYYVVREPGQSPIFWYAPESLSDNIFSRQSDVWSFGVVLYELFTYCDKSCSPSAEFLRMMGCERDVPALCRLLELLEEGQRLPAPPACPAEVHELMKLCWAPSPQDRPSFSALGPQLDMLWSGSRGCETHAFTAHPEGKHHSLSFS
In words: JAK3 Inhibition Assay (Omnia kinase fluorescence peptide substrate assay). To be noted: averaged IC50 ranges; assay of Example D; 10 μM (Km app) or 1 mM ATP, 2.5 nM JAK3. The gist of the method: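 Kinase at 2.5 nM with 10 µM Omnia Y7 peptide and 10 µM (Km app) or 1 mM ATP in 25 mM HEPES pH 7.4, 10 mM MgCl2, 1 mM DTT, 0.01% Triton X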

T2 sequence (P23458 whole entry): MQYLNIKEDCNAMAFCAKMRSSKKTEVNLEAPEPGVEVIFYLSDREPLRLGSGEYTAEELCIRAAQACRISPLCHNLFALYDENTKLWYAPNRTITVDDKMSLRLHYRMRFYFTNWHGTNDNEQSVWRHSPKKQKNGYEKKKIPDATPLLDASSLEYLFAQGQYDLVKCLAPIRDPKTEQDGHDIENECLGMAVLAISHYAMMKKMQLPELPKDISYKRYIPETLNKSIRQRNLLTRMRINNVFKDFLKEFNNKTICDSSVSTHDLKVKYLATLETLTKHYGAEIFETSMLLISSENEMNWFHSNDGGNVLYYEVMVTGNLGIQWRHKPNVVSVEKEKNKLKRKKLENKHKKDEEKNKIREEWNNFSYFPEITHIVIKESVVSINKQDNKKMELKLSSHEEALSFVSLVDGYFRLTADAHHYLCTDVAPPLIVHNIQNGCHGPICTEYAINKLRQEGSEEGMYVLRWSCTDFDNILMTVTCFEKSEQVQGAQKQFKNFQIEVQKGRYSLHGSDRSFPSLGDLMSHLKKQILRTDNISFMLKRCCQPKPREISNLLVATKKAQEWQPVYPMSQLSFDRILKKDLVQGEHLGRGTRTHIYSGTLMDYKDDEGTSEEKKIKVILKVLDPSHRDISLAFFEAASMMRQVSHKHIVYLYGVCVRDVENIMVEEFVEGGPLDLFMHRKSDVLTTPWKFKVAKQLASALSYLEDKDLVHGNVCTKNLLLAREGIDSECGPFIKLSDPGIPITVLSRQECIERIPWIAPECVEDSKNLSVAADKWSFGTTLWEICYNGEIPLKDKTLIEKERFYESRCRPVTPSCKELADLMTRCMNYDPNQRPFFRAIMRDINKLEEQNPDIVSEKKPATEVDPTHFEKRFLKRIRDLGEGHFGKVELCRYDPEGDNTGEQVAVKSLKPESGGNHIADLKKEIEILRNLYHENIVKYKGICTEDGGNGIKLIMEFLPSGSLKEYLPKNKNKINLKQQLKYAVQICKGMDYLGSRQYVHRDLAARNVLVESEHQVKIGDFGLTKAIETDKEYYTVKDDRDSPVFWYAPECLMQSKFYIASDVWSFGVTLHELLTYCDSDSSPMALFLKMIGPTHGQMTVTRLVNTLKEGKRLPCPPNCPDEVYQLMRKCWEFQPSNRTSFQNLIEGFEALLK
T3 sequence (O60674 whole entry): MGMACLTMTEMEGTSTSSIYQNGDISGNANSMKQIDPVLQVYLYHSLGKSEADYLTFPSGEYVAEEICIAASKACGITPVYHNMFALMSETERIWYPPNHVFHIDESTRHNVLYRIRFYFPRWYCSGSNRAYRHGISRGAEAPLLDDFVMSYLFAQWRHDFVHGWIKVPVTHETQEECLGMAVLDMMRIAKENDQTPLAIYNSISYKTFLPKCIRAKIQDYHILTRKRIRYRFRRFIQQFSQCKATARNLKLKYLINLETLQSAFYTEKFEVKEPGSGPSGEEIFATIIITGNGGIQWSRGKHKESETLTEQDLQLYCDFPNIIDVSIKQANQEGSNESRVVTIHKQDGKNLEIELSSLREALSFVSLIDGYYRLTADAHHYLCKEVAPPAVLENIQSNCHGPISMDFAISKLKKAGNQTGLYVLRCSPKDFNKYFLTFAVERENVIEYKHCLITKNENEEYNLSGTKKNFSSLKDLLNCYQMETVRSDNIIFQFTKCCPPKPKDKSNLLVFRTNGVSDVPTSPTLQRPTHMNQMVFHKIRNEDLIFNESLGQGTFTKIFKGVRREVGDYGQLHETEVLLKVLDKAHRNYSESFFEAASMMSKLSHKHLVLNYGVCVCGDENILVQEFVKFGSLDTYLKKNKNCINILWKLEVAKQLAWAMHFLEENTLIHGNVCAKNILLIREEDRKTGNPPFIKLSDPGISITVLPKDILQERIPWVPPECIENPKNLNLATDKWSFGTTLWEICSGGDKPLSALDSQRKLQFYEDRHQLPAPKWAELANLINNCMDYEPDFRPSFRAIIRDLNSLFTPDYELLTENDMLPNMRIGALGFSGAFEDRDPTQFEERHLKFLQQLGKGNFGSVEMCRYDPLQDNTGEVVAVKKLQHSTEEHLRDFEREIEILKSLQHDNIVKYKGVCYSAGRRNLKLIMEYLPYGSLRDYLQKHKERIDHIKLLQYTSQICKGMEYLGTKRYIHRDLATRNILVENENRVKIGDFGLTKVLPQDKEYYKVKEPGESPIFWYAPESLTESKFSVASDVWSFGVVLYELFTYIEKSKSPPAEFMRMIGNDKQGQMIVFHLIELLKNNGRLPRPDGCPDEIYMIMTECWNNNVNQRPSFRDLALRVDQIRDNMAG

With `CN1CCC(CC#N)(n2cc(-c3nc(-c4cnn(C)c4)cc4nccn34)cn2)CC1` [Example 28, 2-(1-methyl-4-(4-(7-(1-methyl-1H-pyrazol-4-yl)imidazo[1,2-c]pyrimidin-5-yl)-1H-pyrazol-1-yl)piperidin-4-yl)acetonitrile], the pIC50 is 7.00 to 8.00 against Human Tyk2 kinase domain, below 6.00 against JAK1, 6.00 to 7.00 against JAK2 and below 6.00 at JAK3.
On to `CCN1CCC(CC#N)(n2cc(-c3nc(-c4cnn(C)c4)cc4nccn34)cn2)CC1` [Example 29, 2-(1-ethyl-4-(4-(7-(1-methyl-1H-pyrazol-4-yl)imidazo[1,2-c]pyrimidin-5-yl)-1H-pyrazol-1-yl)piperidin-4-yl)acetonitrile], for which the pIC50 against Human Tyk2 kinase domain is 6.00 to 7.00; against JAK1, below 6.00; at JAK2, below 6.00; against JAK3, below 6.00.
With `CCCN1CCC(CC#N)(n2cc(-c3nc(-c4cnn(C)c4)cc4nccn34)cn2)CC1` [Example 30, 2-(4-(4-(7-(1-methyl-1H-pyrazol-4-yl)imidazo[1,2-c]pyrimidin-5-yl)-1H-pyrazol-1-yl)-1-propylpiperidin-4-yl)acetonitrile], the pIC50 at Human Tyk2 kinase domain is 6.00 to 7.00; at JAK1, below 6.00; against JAK2, below 6.00; against JAK3, below 6.00.
Consider `Cn1cc(-c2cc3nccn3c(-c3cnn(C4(CC#N)CCN(CC(F)(F)F)CC4)c3)n2)cn1` [Example 31, 2-(4-(4-(7-(1-methyl-1H-pyrazol-4-yl)imidazo[1,2-c]pyrimidin-5-yl)-1H-pyrazol-1-yl)-1-(2,2,2-trifluoroethyl)piperidin-4-yl)acetonitrile], for which the pIC50 against Human Tyk2 kinase domain was 7.00 to 8.00; on JAK1, 6.00 to 7.00; against JAK2, 6.00 to 7.00; against JAK3, below 6.00.
Regarding `C[Si](C)(C)CCOCn1cc(-c2cc3nccn3c(-c3cnn(C(CC#N)C4CC4)c3)n2)cn1` (stereo not drawn) [Example 32, 3-cyclopropyl-3-(4-(7-(1-((2-(trimethylsilyl)ethoxy)methyl)-1H-pyrazol-4-yl)imidazo[1,2-c]pyrimidin-5-yl)-1H-pyrazol-1-yl)propanenitrile], the pIC50 is 7.00 to 8.00 against Human Tyk2 kinase domain, 6.00 to 7.00 on JAK1, 7.00 to 8.00 against JAK2 and 6.00 to 7.00 at JAK3.
`N#CCC(C1CC1)n1cc(-c2nc(-c3cn[nH]c3)cc3nccn23)cn1` (stereo not drawn) [Example 33, 3-(4-(7-(1H-pyrazol-4-yl)imidazo[1,2-c]pyrimidin-5-yl)-1H-pyrazol-1-yl)-3-cyclopropylpropanenitrile]: the pIC50 is 7.00 to 8.00 against Human Tyk2 kinase domain, 6.00 to 7.00 at JAK1, 6.00 to 7.00 at JAK2 and below 6.00 on JAK3.
Regarding `CC(C)n1cc(-c2cc3nccn3c(-c3cnn(C(CC#N)C4CC4)c3)n2)cn1` (stereo not drawn) [Example 34, 3-Cyclopropyl-3-(4-(7-(1-isopropyl-1H-pyrazol-4-yl)imidazo[1,2-c]pyrimidin-5-yl)-1H-pyrazol-1-yl)propanenitrile], the pIC50 against Human Tyk2 kinase domain is above 8.00; against JAK1, 6.00 to 7.00; against JAK2 it was 7.00 to 8.00; against JAK3, 6.00 to 7.00.
For `N#CCC(C1CC1)n1cc(-c2nc(-c3cnn(Cc4cccnc4)c3)cc3nccn23)cn1` (stereo not drawn) [Example 35, 3-cyclopropyl-3-(4-(7-(1-(pyridin-3-ylmethyl)-1H-pyrazol-4-yl)imidazo[1,2-c]pyrimidin-5-yl)-1H-pyrazol-1-yl)propanenitrile], the pIC50 against Human Tyk2 kinase domain was above 8.00; against JAK1 it was 6.00 to 7.00; on JAK2 it was 7.00 to 8.00; against JAK3, 6.00 to 7.00.
For the compound `N#CCC(C1CC1)n1cc(-c2nc(-c3cnn(C4CCOCC4)c3)cc3nccn23)cn1` (stereo not drawn) [Example 36, 3-cyclopropyl-3-(4-(7-(1-(tetrahydro-2H-pyran-4-yl)-1H-pyrazol-4-yl)imidazo[1,2-c]pyrimidin-5-yl)-1H-pyrazol-1-yl)propanenitrile], the pIC50 was above 8.00 against Human Tyk2 kinase domain, 6.00 to 7.00 at JAK1, 7.00 to 8.00 on JAK2 and 6.00 to 7.00 on JAK3.
With `CC(C)Cn1cc(-c2cc3nccn3c(-c3cnn(C(CC#N)C4CC4)c3)n2)cn1` (stereo not drawn) [Example 37, 3-cyclopropyl-3-(4-(7-(1-isobutyl-1H-pyrazol-4-yl)imidazo[1,2-c]pyrimidin-5-yl)-1H-pyrazol-1-yl)propanenitrile], the pIC50 was 7.00 to 8.00 against Human Tyk2 kinase domain, 6.00 to 7.00 at JAK1, 7.00 to 8.00 against JAK2 and below 6.00 at JAK3.
Take `N#CCC(C1CC1)n1cc(-c2nc(-c3cnn(C4COC4)c3)cc3nccn23)cn1` (stereo not drawn) [Example 38, 3-Cyclopropyl-3-(4-(7-(1-(oxetan-3-yl)-1H-pyrazol-4-yl)imidazo[1,2-c]pyrimidin-5-yl)-1H-pyrazol-1-yl)propanenitrile]: the pIC50 against Human Tyk2 kinase domain is above 8.00; against JAK1 it was 6.00 to 7.00; against JAK2 it was 7.00 to 8.00; at JAK3 it was 6.00 to 7.00.
As for `N#CCC(C1CC1)n1cc(-c2nc(-c3cnn(CC(F)(F)F)c3)cc3nccn23)cn1` (stereo not drawn) [Example 39, 3-cyclopropyl-3-(4-(7-(1-(2,2,2-trifluoroethyl)-1H-pyrazol-4-yl)imidazo[1,2-c]pyrimidin-5-yl)-1H-pyrazol-1-yl)propanenitrile], the pIC50 on Human Tyk2 kinase domain is above 8.00; against JAK1, 7.00 to 8.00; against JAK2, 7.00 to 8.00; at JAK3, 6.00 to 7.00.
Take `CCn1cc(-c2cc3nccn3c(-c3cnn(C(CC#N)C4CC4)c3)n2)cn1` (stereo not drawn) [Example 40, 3-cyclopropyl-3-(4-(7-(1-ethyl-1H-pyrazol-4-yl)imidazo[1,2-c]pyrimidin-5-yl)-1H-pyrazol-1-yl)propanenitrile]: the pIC50 was above 8.00 against Human Tyk2 kinase domain, 6.00 to 7.00 at JAK1, 7.00 to 8.00 against JAK2 and 6.00 to 7.00 at JAK3.
Turning to `CC(C)OCCn1cc(-c2cc3nccn3c(-c3cnn(C(CC#N)C4CC4)c3)n2)cn1` (stereo not drawn) [Example 41, 3-cyclopropyl-3-(4-(7-(1-(2-isopropoxyethyl)-1H-pyrazol-4-yl)imidazo[1,2-c]pyrimidin-5-yl)-1H-pyrazol-1-yl]propanenitrile], the pIC50 is 7.00 to 8.00 on Human Tyk2 kinase domain, 6.00 to 7.00 at JAK1, 7.00 to 8.00 against JAK2 and below 6.00 against JAK3.
As to `N#CCC(C1CC1)n1cc(-c2nc(-c3cnn(C4CCC4)c3)cc3nccn23)cn1` (stereo not drawn) [Example 42, 3-(4-(7-(1-cyclobutyl-1H-pyrazol-4-yl)imidazo[1,2-c]pyrimidin-5-yl)-1H-pyrazol-1-yl)-3-cyclopropylpropanenitrile], the negative-log IC50 (pIC50) is above 8.00 on Human Tyk2 kinase domain, 7.00 to 8.00 at JAK1, 7.00 to 8.00 on JAK2 and 6.00 to 7.00 on JAK3.
